{
  "source": "patent US20130011411A1",
  "about": "“METHODS AND COMPOSITIONS FOR THE DIAGNOSIS, PROGNOSIS, AND TREATMENT OF CANCER” (priority 2010, published 2013)",
  "tested_on": "breast cancer cell lines",
  "assay": "DACH1 mRNA expression after methylation inhibitor treatment",
  "format": "cell-based",
  "conditions": "different breast cancer cell lines; data not shown",
  "text": "DNA methylation is a common mechanism leading to tumor suppressor inactivation.",
  "data": [
    {"compound": "Nc1ncn([C@H]2C[C@H](O)[C@@H](CO)O2)c(=O)n1", "note": "[5-aza-2′-deoxycytidine]", "values": [
      {"measurement": "DACH1 mRNA expression", "result": "induced DACH1 mRNA expression"}
    ]}
  ]
}
